From patent US12509444B2, “Compounds and methods for CD73 modulation and indications therefor” (Plexxikon Inc., priority 2019, dated 2025)

Target: T1, Human CD73 (amino acid residues 27-549) (Homo sapiens, UniProt P21589)
T1 construct: Human CD73 (amino acid residues 27-549); His tag (N); made in house; host or cells: E. coli
T1 sequence (P21589 27-549): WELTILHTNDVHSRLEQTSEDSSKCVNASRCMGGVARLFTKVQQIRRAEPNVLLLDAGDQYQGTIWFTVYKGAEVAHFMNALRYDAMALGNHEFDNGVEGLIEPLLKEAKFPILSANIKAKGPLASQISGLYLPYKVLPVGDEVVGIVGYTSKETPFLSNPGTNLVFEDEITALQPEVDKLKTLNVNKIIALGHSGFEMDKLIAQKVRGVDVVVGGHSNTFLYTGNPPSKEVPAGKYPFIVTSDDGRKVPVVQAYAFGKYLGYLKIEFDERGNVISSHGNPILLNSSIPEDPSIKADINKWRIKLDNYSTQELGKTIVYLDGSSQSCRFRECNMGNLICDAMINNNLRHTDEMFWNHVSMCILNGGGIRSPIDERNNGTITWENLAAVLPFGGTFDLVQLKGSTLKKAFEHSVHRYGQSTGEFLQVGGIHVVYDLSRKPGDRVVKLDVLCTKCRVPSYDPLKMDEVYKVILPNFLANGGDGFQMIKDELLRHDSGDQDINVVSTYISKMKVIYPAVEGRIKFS
Assay: CD73 enzymatic assay (luciferase-based indirect assay, CellTiter-Glo)
Format: biochemical
Conditions: 0.4 nM CD73, 150 μM AMP, 1 hour at room temperature
Description: CD73 enzymatic activity was measured in a luciferase-based indirect assay using CellTiter-Glo® system from Promega. The luciferase reaction in the presence of ATP is inhibited by AMP, a primary substrate of CD73. Addition of CD73 enzyme to the reaction converts AMP to adenosine, and release the inhibition, producing a luminescent signal. Inhibition of CD73 leads to the decrease of this luminescent signal.
Human CD73 (amino acid residues 27-549) with N-Terminal His tag was purified in E. coli. All the assay components were prepared in 50 mM HEPEs buffer (pH 7.4) with 0.01% Tween® 20. The CD73 enzymatic assay was performed using 0.4 nM CD73 and 150 μM AMP. 9.5 μL of CD73 protein and 9.5 μL of AMP were added to the wells of a 384 well plate containing 1 μL of various concentrations of test compound or DMSO vehicle and incubated for 1 hour at room temperature. 16 wells containing CD73, AMP and 5% DMSO served as high control. 16 wells containing AMP and 5% DMSO served as low control. Enzymatic reaction was stopped and AMP level was measured indirectly by adding 5 μL of CellTiter-Glo® 2.0 reagent and 5 μL of ATP with a final concentration of 1 μM. Following incubation of the plate at room temperature for 30 minutes, luminescent signal was read on a Tecan plate reader. The percentage inhibition at individual concentrations relative to high and low controls was calculated. The data were analyzed by using nonlinear regression to generate IC50 values.

SMILES | IC50 [µM]
CCCCOC(=O)N[C@@H]1CCN(c2cn[nH]c(=O)c2Cl)C1 [P-0001, butyl (R)-(1-(5-chloro-6-oxo-1,6-dihydropyridazin-4-yl)pyrrolidin-3-yl)carbamate] | 0.001 to 10
CC(C)(C)OC(=O)N[C@H]1CCN(c2cn[nH]c(=O)c2Cl)C1 [P-0002, tert-butyl (S)-(1-(5-chloro-6-oxo-1,6-dihydropyridazin-4-yl)pyrrolidin-3-yl)carbamate] | 10 to 100
O=C(NC1CCCCCC1)N[C@@H]1CCN(c2cn[nH]c(=O)c2Cl)C1 [P-0003, (R)-1-(1-(5-chloro-6-oxo-1,6-dihydropyridazin-4-yl)pyrrolidin-3-yl)-3-cycloheptylurea] | 0.001 to 10
O=C(NCC1CCCC1)N[C@@H]1CCN(c2cn[nH]c(=O)c2Cl)C1 [P-0004, (R)-1-(1-(5-chloro-6-oxo-1,6-dihydropyridazin-4-yl)pyrrolidin-3-yl)-3-(cyclopentylmethyl)urea] | 0.001 to 10
O=C(NCC1CCOC1)N[C@@H]1CCN(c2cn[nH]c(=O)c2Cl)C1 (stereo partly drawn) [P-0005, 1-((R)-1-(5-chloro-6-oxo-1,6-dihydropyridazin-4-yl)pyrrolidin-3-yl)-3-((tetrahydrofuran-3-yl)methyl)urea] | 0.001 to 10
O=C(NCC1CCS(=O)(=O)C1)N[C@@H]1CCN(c2cn[nH]c(=O)c2Cl)C1 (stereo partly drawn) [P-0006, 1-((R)-1-(5-chloro-6-oxo-1,6-dihydropyridazin-4-yl)pyrrolidin-3-yl)-3-((1,1-dioxidotetrahydrothiophen-3-yl)methyl)urea] | 10 to 100
O=C(NCC1CCCCC1)N[C@@H]1CCN(c2cn[nH]c(=O)c2Cl)C1 [P-0007, (R)-1-(1-(5-chloro-6-oxo-1,6-dihydropyridazin-4-yl)pyrrolidin-3-yl)-3-(cyclohexylmethyl)urea] | 0.001 to 10
O=C(NCC1CCOCC1)N[C@@H]1CCN(c2cn[nH]c(=O)c2Cl)C1 [P-0008, (R)-1-(1-(5-chloro-6-oxo-1,6-dihydropyridazin-4-yl)pyrrolidin-3-yl)-3-((tetrahydro-2H-pyran-4-yl)methyl)urea] | 0.001 to 10
O=C(Nc1cccnc1)N[C@@H]1CCN(c2cn[nH]c(=O)c2Cl)C1 [P-0009, (R)-1-(1-(5-chloro-6-oxo-1,6-dihydropyridazin-4-yl)pyrrolidin-3-yl)-3-(pyridin-3-yl)urea] | 10 to 100
O=C(N[C@@H]1CCN(c2cn[nH]c(=O)c2Cl)C1)Oc1ccccc1 [P-0010, phenyl (R)-(1-(5-chloro-6-oxo-1,6-dihydropyridazin-4-yl)pyrrolidin-3-yl)carbamate] | 0.001 to 10
CC(C)(C)OC(=O)N[C@@H]1CCN(c2cn[nH]c(=O)c2Br)C1 [P-0011, tert-butyl (R)-(1-(5-bromo-6-oxo-1,6-dihydropyridazin-4-yl)pyrrolidin-3-yl)carbamate] | 0.001 to 10
Cc1occc1NC(=O)N[C@@H]1CCN(c2cn[nH]c(=O)c2Cl)C1 [P-0012, (R)-1-(1-(5-chloro-6-oxo-1,6-dihydropyridazin-4-yl)pyrrolidin-3-yl)-3-(2-methylfuran-3-yl)urea] | 0.001 to 10
O=C(Nc1ccsc1)N[C@@H]1CCN(c2cn[nH]c(=O)c2Cl)C1 [P-0013, (R)-1-(1-(5-chloro-6-oxo-1,6-dihydropyridazin-4-yl)pyrrolidin-3-yl)-3-(thiophen-3-yl)urea] | 0.001 to 10
Cn1cc(NC(=O)N[C@@H]2CCN(c3cn[nH]c(=O)c3Cl)C2)cn1 [P-0014, (R)-1-(1-(5-chloro-6-oxo-1,6-dihydropyridazin-4-yl)pyrrolidin-3-yl)-3-(1-methyl-1H-pyrazol-4-yl)urea] | 10 to 100
COCCCNC(=O)N[C@@H]1CCN(c2cn[nH]c(=O)c2Cl)C1 [P-0016, (R)-1-(1-(5-chloro-6-oxo-1,6-dihydropyridazin-4-yl)pyrrolidin-3-yl)-3-(3-methoxypropyl)urea] | 10 to 100
O=C(NC1CCCC1)N[C@H]1CCN(c2cn[nH]c(=O)c2Cl)C1 [P-0023, (S)-1-(1-(5-chloro-6-oxo-1,6-dihydropyridazin-4-yl)pyrrolidin-3-yl)-3-cyclopentylurea] | 10 to 100
O=C(NC1CCN(C(=O)C(F)(F)F)CC1)N[C@H]1CCN(c2cn[nH]c(=O)c2Cl)C1 [P-0024, (S)-1-(1-(5-chloro-6-oxo-1,6-dihydropyridazin-4-yl)pyrrolidin-3-yl)-3-(1-(2,2,2-trifluoroacetyl)piperidin-4-yl)urea] | 10 to 100

SMILES | IC50 [µM]
O=C(N[C@H]1CCN(c2cn[nH]c(=O)c2Cl)C1)OC1CCCCC1 [P-0025, cyclohexyl (S)-(1-(5-chloro-6-oxo-1,6-dihydropyridazin-4-yl)pyrrolidin-3-yl)carbamate] | 0.001 to 10
CCOC(=O)CCNC(=O)N[C@@H]1CCN(c2cn[nH]c(=O)c2Cl)C1 [P-0026, ethyl (R)-3-(3-(1-(5-chloro-6-oxo-1,6-dihydropyridazin-4-yl)pyrrolidin-3-yl)ureido)propanoate] | 10 to 100
Cc1noc(C)c1NC(=O)N[C@@H]1CCN(c2cn[nH]c(=O)c2Cl)C1 [P-0027, (R)-1-(1-(5-chloro-6-oxo-1,6-dihydropyridazin-4-yl)pyrrolidin-3-yl)-3-(3,5-dimethylisoxazol-4-yl)urea] | 0.001 to 10
O=C(Nc1cccc(C(F)(F)F)c1)N[C@@H]1CCN(c2cn[nH]c(=O)c2Cl)C1 [P-0028, (R)-1-(1-(5-chloro-6-oxo-1,6-dihydropyridazin-4-yl)pyrrolidin-3-yl)-3-(3-(trifluoromethyl)phenyl)urea] | 10 to 100
O=C(NC1CCOCC1)N[C@@H]1CCN(c2cn[nH]c(=O)c2Cl)C1 [P-0029, (R)-1-(1-(5-chloro-6-oxo-1,6-dihydropyridazin-4-yl)pyrrolidin-3-yl)-3-(tetrahydro-2H-pyran-4-yl)urea] | 0.001 to 10
O=C(NCc1ccccc1)N[C@@H]1CCN(c2cn[nH]c(=O)c2Cl)C1 [P-0031, (R)-1-benzyl-3-(1-(5-chloro-6-oxo-1,6-dihydropyridazin-4-yl)pyrrolidin-3-yl)urea] | 10 to 100
O=C(NCCc1ccccc1)N[C@@H]1CCN(c2cn[nH]c(=O)c2Cl)C1 [P-0032, (R)-1-(1-(5-chloro-6-oxo-1,6-dihydropyridazin-4-yl)pyrrolidin-3-yl)-3-phenethylurea] | 10 to 100
COc1cccc(NC(=O)N[C@@H]2CCN(c3cn[nH]c(=O)c3Cl)C2)c1 [P-0033, (R)-1-(1-(5-chloro-6-oxo-1,6-dihydropyridazin-4-yl)pyrrolidin-3-yl)-3-(3-methoxyphenyl)urea] | 10 to 100
CCOc1ccc(NC(=O)N[C@@H]2CCN(c3cn[nH]c(=O)c3Cl)C2)cc1 [P-0034, (R)-1-(1-(5-chloro-6-oxo-1,6-dihydropyridazin-4-yl)pyrrolidin-3-yl)-3-(4-ethoxyphenyl)urea] | 10 to 100
CCOc1cccc(NC(=O)N[C@@H]2CCN(c3cn[nH]c(=O)c3Cl)C2)c1 [P-0035, (R)-1-(1-(5-chloro-6-oxo-1,6-dihydropyridazin-4-yl)pyrrolidin-3-yl)-3-(3-ethoxyphenyl)urea] | 10 to 100
CC(C)(C)OC(=O)N[C@@H]1CCN(c2cn[nH]c(=O)c2C#N)C1 [P-0036, tert-butyl (R)-(1-(5-cyano-6-oxo-1,6-dihydropyridazin-4-yl)pyrrolidin-3-yl)carbamate] | 0.001 to 10
CC(C)(C)OC(=O)N[C@@H]1CCN(c2cn[nH]c(=O)c2)C1 [P-0037, tert-butyl (R)-(1-(6-oxo-1,6-dihydropyridazin-4-yl)pyrrolidin-3-yl)carbamate] | 10 to 100
O=C(Nc1ccccc1)N[C@@H]1CCN(c2cn[nH]c(=O)c2Cl)C1 [P-0038, (R)-1-(1-(5-chloro-6-oxo-1,6-dihydropyridazin-4-yl)pyrrolidin-3-yl)-3-phenylurea] | 0.001 to 10
COc1ccc(CNC(=O)N[C@@H]2CCN(c3cn[nH]c(=O)c3Cl)C2)cc1OC [P-0040, (R)-1-(1-(5-chloro-6-oxo-1,6-dihydropyridazin-4-yl)pyrrolidin-3-yl)-3-(3,4-dimethoxybenzyl)urea] | 10 to 100
O=C(Nc1ccc(OC(F)(F)F)cc1)N[C@@H]1CCN(c2cn[nH]c(=O)c2Cl)C1 [P-0041, (R)-1-(1-(5-chloro-6-oxo-1,6-dihydropyridazin-4-yl)pyrrolidin-3-yl)-3-(4-(trifluoromethoxy)phenyl)urea] | 0.001 to 10
N#Cc1ccc(NC(=O)N[C@@H]2CCN(c3cn[nH]c(=O)c3Cl)C2)cc1 [P-0042, (R)-1-(1-(5-chloro-6-oxo-1,6-dihydropyridazin-4-yl)pyrrolidin-3-yl)-3-(4-cyanophenyl)urea] | 0.001 to 10
